# How the values were obtained:
# Settings in all cases: incubation time: 72 h
# BT-549 [1] = experiment: normalised viability (% of control), CellTiter-Blue; higher = more viable cells (100 = DMSO, 0 = benzethonium chloride kill control)
# How it was run: (§1)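 Compound dissolved in 5 µl medium was pre-loaded into 384-well plates, and breast cancer cell lines in 20 µl suspension were seeded on top and incubated 72 h. After adding 2.5 µl CellTiter-Blue reagent for 2 h at 37 °C, fluorescence was read at 560/590 nm. Plates were normalised to vehicle (100) and a positive kill control (0), with Z'-factor quality control. Each value is normalised viability at a single listed concentration from the series.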
# HCC1599 [2] = experiment: as above
# How it was run: as §1
# HCC1937 [3] = experiment: as above
# How it was run: as §1
# HDQ-P1 [4] = experiment: as above
# How it was run: as §1
# MDA-MB-231 [5] = experiment: as above
# How it was run: as §1
# BT-474 [6] = experiment: as above
# How it was run: as §1
# MFM-223 [7] = experiment: as above
# How it was run: as §1
# DU-4475 [8] = experiment: as above
# How it was run: as §1
# MDA-MB-453 [9] = experiment: as above
# How it was run: as §1
# HCC1143 [10] = experiment: as above
# How it was run: as §1
# MDA-MB-468 [11] = experiment: as above
# How it was run: as §1
# CAL-51 [12] = experiment: as above
# How it was run: as §1
# CAL-85-1 [13] = experiment: as above
# How it was run: as §1
# MDA-MB-436 [14] = experiment: as above
# How it was run: as §1
# Hs578T [15] = experiment: as above
# How it was run: as §1
# SK-BR-3 [16] = experiment: as above
# How it was run: as §1
# CAL-120 [17] = experiment: as above
# How it was run: as §1
# CAL-148 [18] = experiment: as above
# How it was run: as §1
# BT-549 [19] = experiment: normalised response (% of control), CellTiter-Glo; higher = more viable cells (100 = DMSO, 0 = benzethonium chloride kill control)
# How it was run: (§2)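 Breast cancer cell lines in 20 µl suspension were added to 384-well plates containing compound at 5 concentrations, spaced in 10-fold steps across a 10,000-fold range chosen for each compound, and incubated for 72 h. CellTox Green fluorescence was read at 485/520 nm, followed by CellTiter-Glo luminescence after 10 min at room temperature. Signals on each plate were normalised so that 0.1 % DMSO equals 100 and a positive kill control equals 0. Every value in the table is the normalised signal at one concentration of the series.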
# MCF-10A = experiment: as above
# How it was run: as §2
# HCC1599 [20] = experiment: as above
# How it was run: as §2
# HCC1937 [21] = experiment: as above
# How it was run: as §2
# HDQ-P1 [22] = experiment: as above
# How it was run: as §2
# MDA-MB-231 [23] = experiment: as above
# How it was run: as §2
# BT-474 [24] = experiment: as above
# How it was run: as §2
# MFM-223 [25] = experiment: as above
# How it was run: as §2
# DU-4475 [26] = experiment: as above
# How it was run: as §2
# MDA-MB-453 [27] = experiment: as above
# How it was run: as §2
# HCC1143 [28] = experiment: as above
# How it was run: as §2
# MDA-MB-468 [29] = experiment: as above
# How it was run: as §2
# CAL-51 [30] = experiment: as above
# How it was run: as §2
# CAL-85-1 [31] = experiment: as above
# How it was run: as §2
# MDA-MB-436 [32] = experiment: as above
# How it was run: as §2
# Hs578T [33] = experiment: as above
# How it was run: as §2
# SK-BR-3 [34] = experiment: as above
# How it was run: as §2
# CAL-120 [35] = experiment: as above
# How it was run: as §2
# CAL-148 [36] = experiment: as above
# How it was run: as §2
Structure (SMILES),normalised viability (BT-549 [1]),normalised viability (HCC1599 [2]),normalised viability (HCC1937 [3]),normalised viability (HDQ-P1 [4]),normalised viability (MDA-MB-231 [5]),normalised viability (BT-474 [6]),normalised viability (MFM-223 [7]),normalised viability (DU-4475 [8]),normalised viability (MDA-MB-453 [9]),normalised viability (HCC1143 [10]),normalised viability (MDA-MB-468 [11]),normalised viability (CAL-51 [12]),normalised viability (CAL-85-1 [13]),normalised viability (MDA-MB-436 [14]),normalised viability (Hs578T [15]),normalised viability (SK-BR-3 [16]),normalised viability (CAL-120 [17]),normalised viability (CAL-148 [18]),normalised response (BT-549 [19]),normalised response (MCF-10A),normalised response (HCC1599 [20]),normalised response (HCC1937 [21]),normalised response (HDQ-P1 [22]),normalised response (MDA-MB-231 [23]),normalised response (BT-474 [24]),normalised response (MFM-223 [25]),normalised response (DU-4475 [26]),normalised response (MDA-MB-453 [27]),normalised response (HCC1143 [28]),normalised response (MDA-MB-468 [29]),normalised response (CAL-51 [30]),normalised response (CAL-85-1 [31]),normalised response (MDA-MB-436 [32]),normalised response (Hs578T [33]),normalised response (SK-BR-3 [34]),normalised response (CAL-120 [35]),normalised response (CAL-148 [36])
Cn1nnc2c(C(N)=O)ncn2c1=O [Temozolomide] (1 nM),100%,109%,113%,96.6%,93%,86.8%,102%,128%,98.1%,118%,96%,95.5%,103%,95.7%,102%,126%,107%,103%,104%,104%,90%,99.3%,96.3%,94.8%,95.4%,94.9%,97.5%,97.6%,95%,100%,92.3%,97.5%,92.3%,99.8%,98.3%,99.5%,96.2%
CC[C@@H]1C(=O)N(C)c2cnc(Nc3ccc(C(=O)N[C@H]4CC[C@H](N5CCN(CC6CC6)CC5)CC4)cc3OC)nc2N1C(C)C [Volasertib] (0.1 nM),108%,88.5%,101%,94.3%,110%,107%,92%,103%,101%,96.3%,121%,116%,88.4%,117%,102%,118%,92.4%,110%,104%,88.1%,96.6%,98.9%,93.2%,100%,97.7%,96.2%,95.2%,108%,90.6%,97.3%,111%,102%,80.4%,105%,103%,98.5%,93%

# Reference: the supplement of paper PMC4862054
